From PubChem BioAssay AID330 (DTP/NCI, 2004)
Inconclusive results and toxic doses are left out.

System: P388 leukemia ip, CD2F1 mice, survival T/C
Experiment: NCI In Vivo Anticancer Drug Screen. Data for tumor model P388 Leukemia (intraperitoneal) in CD2F1 (CDF1) mice
Details: endpoint: median survival time, higher = longer survival
Summary of the method: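 Mice carrying the transplanted tumor received test compound or vehicle. Survival was recorded in each group, and the value is the treated-group measurement divided by that of the vehicle-treated control group.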

[1] = dose: 50.0 mg/kg/injection, schedule: Q01DX005 (ip), vehicle: saline with Tween-80
[2] = dose: 100.0 mg/kg/injection, schedule: Q01DX005 (ip), vehicle: saline with Tween-80
[3] = dose: 200.0 mg/kg/injection, schedule: Q01DX005 (ip), vehicle: saline with Tween-80
[4] = dose: 50.0 mg/kg/injection, schedule: Q01DX009 (ip), vehicle: saline with Tween-80
[5] = dose: 100.0 mg/kg/injection, schedule: Q01DX009 (ip), vehicle: saline with Tween-80
[6] = dose: 200.0 mg/kg/injection, schedule: Q01DX009 (ip), vehicle: saline with Tween-80

CN(C)CCCn1c2c(c3ccccc31)CCCCC2
T/C [1]: 97 % of control | T/C [2]: 101 % of control | T/C [3]: 94 % of control

O=C(N=C(N=C(c1ccccc1)N1CCOCC1)c1ccccc1)c1ccccc1
T/C [4]: 106 % of control | T/C [5]: 102 % of control | T/C [6]: 103 % of control

O=c1c2ccccc2ncn1S(=O)(=O)c1ccc(N(CCCl)CCCl)cc1
T/C (dose: 100.0 mg/kg/injection, schedule: Q04DX002 (ip), vehicle: saline with Tween-80): 110 % of control | T/C (dose: 200.0 mg/kg/injection, schedule: Q04DX002 (ip), vehicle: saline with Tween-80): 118 % of control

O=C(O)CCSSCCCS(=O)O
T/C (dose: 50.0 mg/kg/injection, schedule: Q01DX005 (ip), vehicle: saline): 109 % of control | T/C (dose: 100.0 mg/kg/injection, schedule: Q01DX005 (ip), vehicle: saline): 114 % of control | T/C (dose: 200.0 mg/kg/injection, schedule: Q01DX005 (ip), vehicle: saline): 124 % of control

CC1(C)Oc2c(C=O)c(O)cc3c2C2CC1CCC2(C)O3 (stereo not given)
T/C (dose: 9.0 mg/kg/injection, schedule: Q01DX009 (ip), vehicle: saline with Tween-80): 102 % of control | T/C (dose: 18.0 mg/kg/injection, schedule: Q01DX009 (ip), vehicle: saline with Tween-80): 96 % of control | T/C (dose: 36.0 mg/kg/injection, schedule: Q01DX009 (ip), vehicle: saline with Tween-80): 102 % of control

CCOC(=O)/C(C#N)=N/Nc1ccc2cn[nH]c2c1
T/C (dose: 50.0 mg/kg/injection, schedule: Q01DX005 (ip), vehicle: Klucel (hydroxypropylcellulose) (HPC)): 99 % of control | T/C (dose: 100.0 mg/kg/injection, schedule: Q01DX005 (ip), vehicle: Klucel (hydroxypropylcellulose) (HPC)): 94 % of control | T/C (dose: 200.0 mg/kg/injection, schedule: Q01DX005 (ip), vehicle: Klucel (hydroxypropylcellulose) (HPC)): 97 % of control

COC(=O)c1cc2c(oc1=O)-c1ccccc1N(C=O)C2
T/C (dose: 60.0 mg/kg/injection, schedule: Q01DX005 (ip), vehicle: saline with Tween-80): 86 % of control | T/C (dose: 120.0 mg/kg/injection, schedule: Q01DX005 (ip), vehicle: saline with Tween-80): 88 % of control | T/C (dose: 240.0 mg/kg/injection, schedule: Q01DX005 (ip), vehicle: saline with Tween-80): 98 % of control

CCOC(OCC)c1ccc(C)cc1
T/C (dose: 100.0 mg/kg/injection, schedule: Q04DX003 (ip), vehicle: saline with Tween-80): 103 % of control | T/C (dose: 200.0 mg/kg/injection, schedule: Q04DX003 (ip), vehicle: saline with Tween-80): 108 % of control | T/C (dose: 400.0 mg/kg/injection, schedule: Q04DX003 (ip), vehicle: saline with Tween-80): 97 % of control

O=C1C=CC2(O)CCCN12 (stereo not given)
T/C (dose: 5.0 mg/kg/injection, schedule: Q01DX005 (ip), vehicle: saline): 106 % of control | T/C (dose: 10.0 mg/kg/injection, schedule: Q01DX005 (ip), vehicle: saline): 110 % of control | T/C (dose: 20.0 mg/kg/injection, schedule: Q01DX005 (ip), vehicle: saline): 118 % of control

CCC(SC)C(=O)c1ccccc1 (stereo not given)
T/C (dose: 25.0 mg/kg/injection, schedule: Q01DX009 (ip), vehicle: saline with Tween-80): 114 % of control | T/C [4]: 100 % of control | T/C [5]: 101 % of control

N#Cc1c(-c2ccc(Br)cc2)c(-c2ccc(Br)cc2)n[nH]c1=O
T/C (dose: 100.0 mg/kg/injection, schedule: Q01DX001 (ip), vehicle: saline with Tween-80): 91 % of control | T/C (dose: 200.0 mg/kg/injection, schedule: Q01DX001 (ip), vehicle: saline with Tween-80): 95 % of control | T/C (dose: 400.0 mg/kg/injection, schedule: Q01DX001 (ip), vehicle: saline with Tween-80): 95 % of control

CCOC(=O)CSCC(N)=O
T/C (dose: 50.0 mg/kg/injection, schedule: Q01DX009 (ip), vehicle: saline): 100 % of control | T/C (dose: 100.0 mg/kg/injection, schedule: Q01DX009 (ip), vehicle: saline): 100 % of control | T/C (dose: 200.0 mg/kg/injection, schedule: Q01DX009 (ip), vehicle: saline): 98 % of control

COC1=CC(=O)C(C(C)=O)=C(C2(C)C(=O)CCCC2=O)C1=O
T/C [1]: 106 % of control | T/C [2]: 89 % of control | T/C [3]: 104 % of control

N=c1ccn2c(n1)OC1C(O)C(COS(=O)OC3C(CO)OC4C3Oc3nc(=N)ccn34)OC12 (stereo not given)
T/C [6]: 112 % of control

CNC(=O)OCc1c(COC(=O)NC)c(-c2ccco2)n2c1CCC2
T/C (dose: 3.75 mg/kg/injection, schedule: Q01DX005 (ip), vehicle: saline): 100 % of control | T/C (dose: 7.5 mg/kg/injection, schedule: Q01DX005 (ip), vehicle: saline): 101 % of control | T/C (dose: 15.0 mg/kg/injection, schedule: Q01DX005 (ip), vehicle: saline): 120 % of control

O=C1CSC(c2ccccc2Cl)N1N1C(=O)CSC1c1ccccc1Cl (stereo not given)
T/C (dose: 60.0 mg/kg/injection, schedule: Q01DX005 (ip), vehicle: Klucel (hydroxypropylcellulose) (HPC)): 100 % of control | T/C (dose: 120.0 mg/kg/injection, schedule: Q01DX005 (ip), vehicle: Klucel (hydroxypropylcellulose) (HPC)): 93 % of control | T/C (dose: 240.0 mg/kg/injection, schedule: Q01DX005 (ip), vehicle: Klucel (hydroxypropylcellulose) (HPC)): 98 % of control
